Measured values published in US4607031A, “Novel ethyl benzylphosphinate derivatives, process for production thereof, and their use as calcium antagonist” (priority 1984, dated 1986).

Tests used:
Mongrel dogs = test: Coronary vasodilating activity and hypotensive activity in anesthetized dogs; type: in vivo, dog; details: Canis lupus familiaris, iv; for ED15: read-out: Mean systemic blood pressure lowering activity MBP-DD15; for ED75: dose which increases coronary blood flow by 75%, anesthetized mongrel dogs, injected into femoral vein, 0.03 to 0.3 mg/kg, read-out: Coronary blood flow increasing activity CBF-ID75
Experimental: Coronary vasodilating activity was examined by measuring the amount of coronary blood flow as an index. Mongrel dogs weighing 10 to 19 kg were anesthetized by intravenously injecting sodium pentobarbital (30 mg/kg) and thoracotomized at the 5th left intercostal space under artificial ventilation. After incision of the pericardiac membrane, a flow probe was placed at the circumflex banch of the left coronary artery and led to an electromagnetic flow meter (MFV-2100 made by Nihon Kohden Co., Ltd.). The systemic blood pressure of the animals was measured by a pressure transducer (MPU-0.5 made by Nihon Kohden Co., Ltd.) connected to the cannulated left femoral artery. The coronary blood flow and the systemic blood pressure were recorded on a polygraph (RM-85 made by Nihon Kohden Co., Ltd.). Each of the test compounds was dissolved in ethanol/saline solution (1/1, V/V) and injected into the femoral vein.
Each of the test compounds was administered in a dose of 0.03 to 0.3 mg/kg, and doses which increase the coronary blood flow by 75% (CBF-ID75) and decrease the mean systemic blood pressure by 15% (MDP-DD15) were calculated from the regression lines.

Acute toxicity, oral = details: mouse, in vivo, ddY male mice, suspended in 0.5% carboxymethyl cellulose, 7 days
[1] = target: T1, taenia preparation isolated from caecum (Cavia porcellus); test: Calcium antagonistic activity (isolated taenia preparation from caecum, Ca2+ concentration-response in K+-rich solution); type: cell-based; details: guinea pig taenia caeci; Ca2+-free, K+-rich Ringer-Lock solution, 30±1° C.; CaCl2 cumulatively added; read-out: Calcium antagonistic activity (pA2 values, mean ± standard error) (converted)
T1 construct: The taenia preparation in a length of about 2 cm was isolated from caecum; from tissue; host or cells: guinea pig taenia caeci (isolated smooth muscle strip)
Experimental: Male guinea pigs, weighing 405-500 g, were stunned and bled. The taenia preparation in a length of about 2 cm was isolated from caecum and suspended in an organ bath filled with Ca^2+ -free Ringer-Lock solution (composition, mM: NaCl 154, KCl 5.6, NaHCO3 2.3, glucose 5.5). The bathing solution was maintained at 30±1° C. and bubbled with air. The contractile response was recorded using an isotonic transducer (TD-112S made by Nihon Kohden Co., Ltd.) under a load of 0.5 g.
After sufficient incubation to remove Ca^2+, the bathing solution was replaced by Ca^2+ -free, K^+ -rich Ringer-Lock solution (composition, mM: NaCl 59.6, KCl 100, NaHCO3 2.3, glucose 5.5). An aqueous solution of CaCl2 ([…]) was cumulatively added to the bathing solution every 10 minutes, and a concentration-response curve for Ca^2+ was obtained. After washing out Ca^2+ the same procedure as above was carried out in the presence of each of the test compounds, and the pA2 value of the calcium antagonistic activity was calculated from the difference between the concentration-response curves obtained in the absence and presence of the test compound.
Each of the test compounds was dissolved in 5% ethanol and added to the bathing solution (the final concentration of ethanol was 0.05%).

T1 sequence (O35505 whole entry): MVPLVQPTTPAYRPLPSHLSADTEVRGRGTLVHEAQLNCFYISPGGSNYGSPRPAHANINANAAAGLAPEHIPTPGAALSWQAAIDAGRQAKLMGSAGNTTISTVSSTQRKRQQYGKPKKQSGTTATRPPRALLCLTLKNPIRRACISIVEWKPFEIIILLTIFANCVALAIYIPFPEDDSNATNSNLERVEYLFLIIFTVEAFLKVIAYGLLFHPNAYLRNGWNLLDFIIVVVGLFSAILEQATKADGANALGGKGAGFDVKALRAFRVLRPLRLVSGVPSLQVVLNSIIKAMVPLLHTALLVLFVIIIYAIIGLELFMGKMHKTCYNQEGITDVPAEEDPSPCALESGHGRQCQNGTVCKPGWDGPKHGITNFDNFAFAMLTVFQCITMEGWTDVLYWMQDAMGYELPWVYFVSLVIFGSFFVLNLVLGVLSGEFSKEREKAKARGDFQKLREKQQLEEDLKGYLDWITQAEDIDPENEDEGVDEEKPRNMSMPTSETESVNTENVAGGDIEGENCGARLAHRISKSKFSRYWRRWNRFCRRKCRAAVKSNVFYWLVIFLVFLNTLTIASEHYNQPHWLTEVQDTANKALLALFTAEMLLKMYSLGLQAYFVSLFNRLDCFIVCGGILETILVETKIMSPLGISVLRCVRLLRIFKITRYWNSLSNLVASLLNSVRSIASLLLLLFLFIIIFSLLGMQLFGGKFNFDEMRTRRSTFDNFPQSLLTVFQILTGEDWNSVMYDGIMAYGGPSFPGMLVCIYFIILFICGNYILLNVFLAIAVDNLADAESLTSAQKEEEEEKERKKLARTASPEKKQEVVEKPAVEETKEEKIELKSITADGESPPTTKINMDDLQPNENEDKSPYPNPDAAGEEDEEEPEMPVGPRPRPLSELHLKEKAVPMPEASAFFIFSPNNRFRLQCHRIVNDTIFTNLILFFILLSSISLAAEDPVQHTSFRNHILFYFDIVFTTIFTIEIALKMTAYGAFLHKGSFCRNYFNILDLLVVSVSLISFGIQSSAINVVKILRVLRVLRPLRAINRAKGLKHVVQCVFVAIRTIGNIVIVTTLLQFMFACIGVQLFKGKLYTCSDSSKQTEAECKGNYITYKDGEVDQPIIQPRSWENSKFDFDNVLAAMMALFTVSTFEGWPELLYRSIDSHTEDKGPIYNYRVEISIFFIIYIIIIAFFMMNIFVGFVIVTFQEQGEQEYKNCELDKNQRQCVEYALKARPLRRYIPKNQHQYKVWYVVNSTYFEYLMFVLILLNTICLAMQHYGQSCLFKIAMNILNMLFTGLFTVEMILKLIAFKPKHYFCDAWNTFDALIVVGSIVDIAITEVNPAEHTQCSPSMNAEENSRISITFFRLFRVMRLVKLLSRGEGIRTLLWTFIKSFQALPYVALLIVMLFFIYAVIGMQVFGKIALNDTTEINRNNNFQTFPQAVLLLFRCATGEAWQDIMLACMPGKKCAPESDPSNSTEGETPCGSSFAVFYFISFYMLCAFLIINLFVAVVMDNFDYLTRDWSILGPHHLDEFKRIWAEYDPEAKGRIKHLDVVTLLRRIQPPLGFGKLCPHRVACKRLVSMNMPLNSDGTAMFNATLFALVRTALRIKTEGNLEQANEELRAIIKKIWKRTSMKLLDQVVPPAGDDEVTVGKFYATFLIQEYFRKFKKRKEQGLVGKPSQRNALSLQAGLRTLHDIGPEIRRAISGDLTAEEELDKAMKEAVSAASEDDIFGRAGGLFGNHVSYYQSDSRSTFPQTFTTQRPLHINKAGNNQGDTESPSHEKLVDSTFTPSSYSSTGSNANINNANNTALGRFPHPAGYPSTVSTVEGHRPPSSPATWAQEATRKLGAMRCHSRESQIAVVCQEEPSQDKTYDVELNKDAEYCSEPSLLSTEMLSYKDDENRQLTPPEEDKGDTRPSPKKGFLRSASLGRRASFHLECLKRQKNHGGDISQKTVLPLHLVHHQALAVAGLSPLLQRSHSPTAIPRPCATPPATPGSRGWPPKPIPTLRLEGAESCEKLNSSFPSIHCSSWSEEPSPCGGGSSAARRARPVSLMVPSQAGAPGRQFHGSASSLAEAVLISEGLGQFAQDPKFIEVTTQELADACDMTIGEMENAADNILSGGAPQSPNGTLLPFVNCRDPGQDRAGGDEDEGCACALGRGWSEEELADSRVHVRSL

CCOP(=O)(Cc1ccc(-c2nc3ccccc3s2)cc1)N1CCCCC1=O (centres unmarked) [Compound 101, Ethyl 4-(benzothiazol-2-yl)benzyl-(2-oxopiperidino)phosphinate]
ED15 (Mongrel dogs): 0.0582 mg/kg | ED75 (Mongrel dogs): 0.06 mg/kg | LD50 at 168 h (Acute toxicity, oral): > 1000 mg/kg | Kb [1]: 35.5 nM

CCOP(=O)(Cc1ccc(-c2nc3ccccc3s2)cc1)N1CCCC1=O (centres unmarked) [Compound 100, Ethyl 4-(benzothiazol-2-yl)benzyl-(2-oxopyrrolidino)phosphinate]
ED15 (Mongrel dogs): 0.0387 mg/kg | ED75 (Mongrel dogs): 0.044 mg/kg | LD50 at 168 h (Acute toxicity, oral): > 1000 mg/kg | Kb [1]: 29.5 nM

CCOP(=O)(Cc1ccc(-c2nc3ccccc3s2)cc1)OCC [Compound A, diethyl 4-(benzothiazol-2-yl)benzylphosphonate, reference compound]
ED15 (Mongrel dogs): 0.158 mg/kg | ED75 (Mongrel dogs): 0.116 mg/kg | LD50 at 168 h (Acute toxicity, oral): > 1000 mg/kg | Kb [1]: 61.7 nM

CCOP(=O)(Cc1ccc(-c2nc3ccccc3s2)cc1)N1CCCCCC1=O (centres unmarked) [Compound 102, Ethyl 4-(benzothiazol-2-yl)benzyl-(2-oxohomopiperidino)phosphinate]
ED15 (Mongrel dogs): 0.054 mg/kg | ED75 (Mongrel dogs): 0.0573 mg/kg | LD50 at 168 h (Acute toxicity, oral): > 1000 mg/kg | Kb [1]: 34.7 nM

CCOP(=O)(Cc1ccc(-c2nc3cc(F)ccc3s2)cc1)N1CCOC1=O (centres unmarked) [Compound 109, Ethyl 4-(5-fluorobenzothiazol-2-yl)benzyl(2-oxo-1,3-oxazolidino)phosphinate]
ED15 (Mongrel dogs): 0.0748 mg/kg | ED75 (Mongrel dogs): 0.0615 mg/kg | LD50 at 168 h (Acute toxicity, oral): > 1000 mg/kg | Kb [1]: 20.4 nM

CCOP(=O)(Cc1ccc(-c2nc3cc(F)ccc3s2)cc1)N1CCCCCC1=O (centres unmarked) [Compound 105, Ethyl 4-(5-fluorobenzothiazol-2-yl)benzyl(2-oxohomopiperidino)phosphinate]
ED15 (Mongrel dogs): 0.0712 mg/kg | ED75 (Mongrel dogs): 0.0583 mg/kg | LD50 at 168 h (Acute toxicity, oral): > 1000 mg/kg | Kb [1]: 18.6 nM

CCOP(=O)(Cc1ccc(-c2nc3cc(F)ccc3s2)cc1)N1CCCCC1=O (centres unmarked) [Compound 104, Ethyl 4-(5-fluorobenzothiazol-2-yl)benzyl(2-oxopiperidino)phosphinate]
ED15 (Mongrel dogs): 0.0629 mg/kg | ED75 (Mongrel dogs): 0.0647 mg/kg | LD50 at 168 h (Acute toxicity, oral): > 1000 mg/kg | Kb [1]: 20.9 nM

CCOP(=O)(Cc1ccc(-c2nc3cc(F)ccc3s2)cc1)N1CCCC1=O (centres unmarked) [Compound 103, Ethyl 4-(5-fluorobenzothiazol-2-yl)benzyl(2-oxopyrrolidino)phosphinate]
ED15 (Mongrel dogs): 0.0901 mg/kg | ED75 (Mongrel dogs): 0.0644 mg/kg | LD50 at 168 h (Acute toxicity, oral): > 1000 mg/kg | Kb [1]: 18.6 nM
